According to PubChem BioAssay AID1845216 (Molecular Pharmacology Branch, DTP, NCI, 2023):
pIC50: −log10 of the molar value.

Tested on: SW 982 tumor spheroid viability
Assay: Anticancer human tumor SW 982 cell line growth inhibition;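 note: spheroids exposed to compound for 7 days before readout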
Details: spheroids with HUVEC and MSC; for pIC50: curve of first compound; for viability, T/C: stronger effect = lower value
Description: Multicellular complex tumor spheroid response to DNA repair inhibitors in combination with DNA-damaging drugs
This study explores the anticancer activities of DNA-damaging drugs and inhibitors of DNA damage repair, both as single agents and in combinations. Complex tumor spheroids comprised of malignant cells, endothelial cells and mesenchymal stem cells served as an in vitro model for human solid tumors. This model system incorporates physiologically relevant features and patient-derived or established malignant cell lines with clinically relevant genetic alterations from many tumor types. Twenty-six patient-derived or established malignant cell lines were evaluated representing sarcoma, melanoma, small cell lung cancer (SCLC), non-small cell lung cancer (NSCLC), as well as bladder, ovarian and pancreatic cancers. The concentration ranges selected for each drug and investigational agent were based upon clinically achievable concentrations if the clinical Cmax of the agent was known.
Compounds. The drugs and compounds olaparib (NSC753686), talazoparib (NSC767125), berzosertib (NSC777718), elimusertib (NSC800525), nedisertib (NSC802822), VX-984 (NSC792969), AZD-1390 (NSC803789), temozolomide (NSC362856), topotecan (NSC609699), trabectedin (NSC813783), staurosporine (NSC755774), and gemcitabine (NSC613327) were obtained from the National Cancer Institute (NCI) Developmental Therapeutics Program Chemical Repository. The FDA-approved anticancer drug set is available from the Developmental Therapeutics Program at https://dtp.cancer.gov/organization/dscb/obtaining/available_plates.htm. […] The stock solutions were prepared in dimethyl sulfoxide (DMSO, Sigma-Aldrich, St. Louis, MO, cat. D2650) at 400-fold the tested concentration and stored at -70 degrees C. Prior to their use, the stock solutions were diluted in fresh medium and the final DMSO concentration in the assay was 0.25% (v/v). All drugs and investigational agents were tested over a range starting from a high concentration at or near the clinical Cmax and decreasing in half-log increments. If the clinical Cmax for an agent had not been determined, the highest concentration tested was 10 microM.
Cell Lines. The patient-derived cancer cell (PDC) lines: 156681-154-R-J1-PDC, 283228-195-R-J1-PDC, 287954-098-R-J1-PDC, 292921-168-R-J2-PDC, 349418-098-R-PDC, 425362-245-T-J1-PDC, 556581-035-R-J1-PDC, and BL0293-F563-PDC were received from the NCI Patient-Derived Models Repository (PDMR, https://pdmr.cancer.gov). The established cell lines HS-SY-2 (RRID:CVCL_8719), MPNST, and SYO-1 (RRID:CVCL_7146) were obtained from the Sloan Kettering Institute. The alveolar soft parts sarcoma cell line ASPS-1 (RRID:CVCL_S738) was established at the NCI and grown from internal seed stocks. The following established cell lines were purchased from the American Type Culture Collection (ATCC, Manassas, VA): G-401 (ATCC, cat. CRL-1441, RRID:CVCL_0270), SW982 (ATCC, cat. HTB-93, RRID:CVCL_1734), VA-ES-BJ (ATCC, cat. CRL-2138, RRID:CVCL_1785), NCI-H719 (ATCC, cat. CRL-5837, RRID:CVCL_1582), NCI-H196 (ATCC, cat. CRL-5823, RRID:CVCL_1509), NCI-H841 (ATCC, cat. CRL-5845, RRID:CVCL_1595), NCI-H1618 (ATCC, cat. CRL-5879, RRID:CVCL_1480), NCI-H1876 (ATCC, cat. CRL-5902, RRID:CVCL_1503), DMS 114 (ATCC, cat. CRL-2066; RRID:CVCL_1174), NCI-H211 (ATCC, cat. CRL-5824; RRID:CVCL_1529), and SW 1271 (ATCC, cat. CRL-2177, RRID:CVCL_1716). The small cell lung cancer cell line COR-L88 was purchased from Sigma-Aldrich (cat. 92031917-1VL, RRID:CVCL_1141). The non-small cell lung cancer cell lines NCI-H226 (RRID:CVCL_1544) and NCI-H322M (RRID:CVCL_1557) were established at the NCI and grown from internal seed stocks. Pooled donor human umbilical vein endothelial cells (HUVEC, Lonza, cat. CC-2519) and human mesenchymal stem cells (hMSC, Lonza, cat. PT-2501) were purchased from Lonza (Walkersville, MD).
Cell Culture. All cells were maintained in an incubator at 37 degrees C and 5% CO2 with 95% humidity. […]

How did the pIC50 (second compound 0.003 µM) turn out when `Cc1cc(C)c(CNC(=O)c2cc(-c3ccc(CN4CCOCC4)cc3)cc3c2cnn3C2CCCC2)c(=O)[nH]1` + CC[C@@]1(O)C(=O)OCc2c1cc1n(c2=O)Cc2cc3c(CN(C)C)c(O)ccc3nc2-1 was run?
The pIC50 was less than 5.00.

What about the pIC50 (second compound 0.00949 µM) of the same compound?
Its pIC50 is less than 5.00.

What about the pIC50 (second compound 0.03 µM) of the same compound?
The pIC50 was less than 5.00.

And the pIC50 (second compound 0.0949 µM)?
Its pIC50 is less than 5.00.

What about the pIC50 (second compound 0.3 µM) of the same compound?
The pIC50 was 5.52.

And the viability, T/C (second compound 0.003 µM, first compound 0.0316 µM)?
The viability, T/C was 96.8%.

And the viability, T/C (second compound 0.003 µM, first compound 0.1 µM)?
The viability, T/C was 102%.

And the viability, T/C (second compound 0.003 µM, first compound 0.316 µM)?
The viability, T/C was 103%.

What about the viability, T/C (second compound 0.003 µM, first compound 1 µM) of the same compound?
The viability, T/C was 90.4%.

And the viability, T/C (second compound 0.003 µM, first compound 3.16 µM)?
Its viability, T/C is 85.9%.

What about the viability, T/C (second compound 0.003 µM, first compound 10 µM) of the same compound?
The viability, T/C was 61.6%.

And the viability, T/C (second compound 0.00949 µM, first compound 0.0316 µM)?
The viability, T/C was 96.1%.

And the viability, T/C (second compound 0.00949 µM, first compound 0.1 µM)?
Its viability, T/C is 86.6%.

And the viability, T/C (second compound 0.00949 µM, first compound 0.316 µM)?
Its viability, T/C is 86.5%.

And the viability, T/C (second compound 0.00949 µM, first compound 1 µM)?
The viability, T/C was 85%.

What about the viability, T/C (second compound 0.00949 µM, first compound 3.16 µM) of the same compound?
The viability, T/C was 83%.

What about the viability, T/C (second compound 0.00949 µM, first compound 10 µM) of the same compound?
The viability, T/C was 63.3%.

What about the viability, T/C (second compound 0.03 µM, first compound 0.0316 µM) of the same compound?
Its viability, T/C is 97%.

And the viability, T/C (second compound 0.03 µM, first compound 0.1 µM)?
The viability, T/C was 88.7%.

And the viability, T/C (second compound 0.03 µM, first compound 0.316 µM)?
Its viability, T/C is 101%.

And the viability, T/C (second compound 0.03 µM, first compound 1 µM)?
Its viability, T/C is 83.4%.

And the viability, T/C (second compound 0.03 µM, first compound 3.16 µM)?
The viability, T/C was 86.2%.

And the viability, T/C (second compound 0.03 µM, first compound 10 µM)?
Its viability, T/C is 62.9%.

And the viability, T/C (second compound 0.0949 µM, first compound 0.0316 µM)?
The viability, T/C was 87.7%.

And the viability, T/C (second compound 0.0949 µM, first compound 0.1 µM)?
The viability, T/C was 87.4%.

What about the viability, T/C (second compound 0.0949 µM, first compound 0.316 µM) of the same compound?
Its viability, T/C is 85.2%.

And the viability, T/C (second compound 0.0949 µM, first compound 1 µM)?
Its viability, T/C is 89.6%.

What about the viability, T/C (second compound 0.0949 µM, first compound 3.16 µM) of the same compound?
Its viability, T/C is 75.6%.

And the viability, T/C (second compound 0.0949 µM, first compound 10 µM)?
The viability, T/C was 61.7%.

What about the viability, T/C (second compound 0.3 µM, first compound 0.0316 µM) of the same compound?
Its viability, T/C is 63.7%.

And the viability, T/C (second compound 0.3 µM, first compound 0.1 µM)?
Its viability, T/C is 57.3%.

What about the viability, T/C (second compound 0.3 µM, first compound 0.316 µM) of the same compound?
The viability, T/C was 54.7%.

And the viability, T/C (second compound 0.3 µM, first compound 1 µM)?
Its viability, T/C is 55%.

And the viability, T/C (second compound 0.3 µM, first compound 3.16 µM)?
The viability, T/C was 52.3%.

And the viability, T/C (second compound 0.3 µM, first compound 10 µM)?
The viability, T/C was 39%.

How did the pIC50 (second compound 0.003 µM) turn out when `Cc1sc2c(c1C)C(c1ccc(Cl)cc1)=NC(CC(=O)Nc1ccc(O)cc1)c1nnc(C)n1-2` (stereo not given) + CC[C@@]1(O)C(=O)OCc2c1cc1n(c2=O)Cc2cc3c(CN(C)C)c(O)ccc3nc2-1 was run?
Its pIC50 is 6.55.

And the pIC50 (second compound 0.00949 µM)?
The pIC50 was 6.26.

And the pIC50 (second compound 0.03 µM)?
The pIC50 was 6.31.

And the pIC50 (second compound 0.0949 µM)?
Its pIC50 is 6.35.

What about the pIC50 (second compound 0.3 µM) of the same compound?
Its pIC50 is 6.60.

And the viability, T/C (second compound 0.003 µM, first compound 0.00949 µM)?
The viability, T/C was 112%.

What about the viability, T/C (second compound 0.003 µM, first compound 0.03 µM) of the same compound?
Its viability, T/C is 110%.

And the viability, T/C (second compound 0.003 µM, first compound 0.0949 µM)?
Its viability, T/C is 76.4%.

What about the viability, T/C (second compound 0.003 µM, first compound 0.3 µM) of the same compound?
The viability, T/C was 49.8%.

What about the viability, T/C (second compound 0.003 µM, first compound 0.949 µM) of the same compound?
The viability, T/C was 40.1%.

What about the viability, T/C (second compound 0.003 µM, first compound 3 µM) of the same compound?
Its viability, T/C is 30.5%.

What about the viability, T/C (second compound 0.00949 µM, first compound 0.00949 µM) of the same compound?
Its viability, T/C is 97%.

And the viability, T/C (second compound 0.00949 µM, first compound 0.03 µM)?
The viability, T/C was 98.9%.

What about the viability, T/C (second compound 0.00949 µM, first compound 0.0949 µM) of the same compound?
The viability, T/C was 81.5%.

What about the viability, T/C (second compound 0.00949 µM, first compound 0.3 µM) of the same compound?
Its viability, T/C is 63.8%.

What about the viability, T/C (second compound 0.00949 µM, first compound 0.949 µM) of the same compound?
The viability, T/C was 36.9%.

What about the viability, T/C (second compound 0.00949 µM, first compound 3 µM) of the same compound?
The viability, T/C was 36.4%.

And the viability, T/C (second compound 0.03 µM, first compound 0.00949 µM)?
The viability, T/C was 97.1%.

And the viability, T/C (second compound 0.03 µM, first compound 0.03 µM)?
Its viability, T/C is 95.8%.

What about the viability, T/C (second compound 0.03 µM, first compound 0.0949 µM) of the same compound?
Its viability, T/C is 83.2%.

And the viability, T/C (second compound 0.03 µM, first compound 0.3 µM)?
The viability, T/C was 58.4%.

What about the viability, T/C (second compound 0.03 µM, first compound 0.949 µM) of the same compound?
The viability, T/C was 38.8%.

What about the viability, T/C (second compound 0.03 µM, first compound 3 µM) of the same compound?
Its viability, T/C is 29.8%.

What about the viability, T/C (second compound 0.0949 µM, first compound 0.00949 µM) of the same compound?
Its viability, T/C is 95.2%.

What about the viability, T/C (second compound 0.0949 µM, first compound 0.03 µM) of the same compound?
The viability, T/C was 92.1%.

And the viability, T/C (second compound 0.0949 µM, first compound 0.0949 µM)?
Its viability, T/C is 85.9%.

What about the viability, T/C (second compound 0.0949 µM, first compound 0.3 µM) of the same compound?
The viability, T/C was 57.8%.

What about the viability, T/C (second compound 0.0949 µM, first compound 0.949 µM) of the same compound?
The viability, T/C was 35.5%.

What about the viability, T/C (second compound 0.0949 µM, first compound 3 µM) of the same compound?
Its viability, T/C is 29.2%.

What about the viability, T/C (second compound 0.3 µM, first compound 0.00949 µM) of the same compound?
Its viability, T/C is 73.5%.

And the viability, T/C (second compound 0.3 µM, first compound 0.03 µM)?
The viability, T/C was 80.6%.

And the viability, T/C (second compound 0.3 µM, first compound 0.0949 µM)?
The viability, T/C was 71%.

What about the viability, T/C (second compound 0.3 µM, first compound 0.3 µM) of the same compound?
The viability, T/C was 45.6%.

And the viability, T/C (second compound 0.3 µM, first compound 0.949 µM)?
The viability, T/C was 30.4%.

What about the viability, T/C (second compound 0.3 µM, first compound 3 µM) of the same compound?
Its viability, T/C is 22.9%.
